Our source for the IC50 values is patent US12668594B2, “TYK2 inhibitors and uses thereof” (Sudo Biosciences Limited, priority 2020, dated 2026).

Molecules are shown by their SMILES.

Assay [1] concerns the target T1, TYK2 (Homo sapiens, UniProt P29597). In words: HEK-Blue IFNα/β reporter assay (SEAP) for TYK2 pseudokinase inhibition. It is filed as cell-based. The conditions noted are these: HEK-Blue IFNα/β cells, 1 ng/mL human recombinant IFNα. Summed up: (§1)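 HEK-Blue cells carrying cytokine receptor and STAT3 or STAT1 SEAP reporter, pretreated 60 min with compound, then stimulated with 10 ng/mL IL-23 (22–24 h) or 1 ng/mL IFNα (16–18 h). SEAP read with QUANTI-Blue; IC50 by non-linear regression versus no-inhibitor and unstimulated controls.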
On the technique in general: Reporter assays use an easily measured gene product as a stand-in for the process of interest.

Assay [2] has as its target T1, TYK2. In words: HEK-Blue IL-23 reporter assay (SEAP) for TYK2 pseudokinase inhibition. It is filed as cell-based. Also on record: HEK-Blue™ IL-23 and IFNα/β cells with a stably-integrated cytokine receptor and STAT3 or STAT1; host or cells: HEK-Blue IL-23 / HEK-Blue IFNα/β cells (HEK293 background). To be noted: HEK-Blue IL-23 cells, 10 ng/mL human recombinant IL-23, SEAP reporter; read-out: IL23 IC50. Summed up:
as §1

As usually defined, the IC50 is the point on the concentration scale where inhibition reaches its midpoint.

T1 sequence (P29597 whole entry): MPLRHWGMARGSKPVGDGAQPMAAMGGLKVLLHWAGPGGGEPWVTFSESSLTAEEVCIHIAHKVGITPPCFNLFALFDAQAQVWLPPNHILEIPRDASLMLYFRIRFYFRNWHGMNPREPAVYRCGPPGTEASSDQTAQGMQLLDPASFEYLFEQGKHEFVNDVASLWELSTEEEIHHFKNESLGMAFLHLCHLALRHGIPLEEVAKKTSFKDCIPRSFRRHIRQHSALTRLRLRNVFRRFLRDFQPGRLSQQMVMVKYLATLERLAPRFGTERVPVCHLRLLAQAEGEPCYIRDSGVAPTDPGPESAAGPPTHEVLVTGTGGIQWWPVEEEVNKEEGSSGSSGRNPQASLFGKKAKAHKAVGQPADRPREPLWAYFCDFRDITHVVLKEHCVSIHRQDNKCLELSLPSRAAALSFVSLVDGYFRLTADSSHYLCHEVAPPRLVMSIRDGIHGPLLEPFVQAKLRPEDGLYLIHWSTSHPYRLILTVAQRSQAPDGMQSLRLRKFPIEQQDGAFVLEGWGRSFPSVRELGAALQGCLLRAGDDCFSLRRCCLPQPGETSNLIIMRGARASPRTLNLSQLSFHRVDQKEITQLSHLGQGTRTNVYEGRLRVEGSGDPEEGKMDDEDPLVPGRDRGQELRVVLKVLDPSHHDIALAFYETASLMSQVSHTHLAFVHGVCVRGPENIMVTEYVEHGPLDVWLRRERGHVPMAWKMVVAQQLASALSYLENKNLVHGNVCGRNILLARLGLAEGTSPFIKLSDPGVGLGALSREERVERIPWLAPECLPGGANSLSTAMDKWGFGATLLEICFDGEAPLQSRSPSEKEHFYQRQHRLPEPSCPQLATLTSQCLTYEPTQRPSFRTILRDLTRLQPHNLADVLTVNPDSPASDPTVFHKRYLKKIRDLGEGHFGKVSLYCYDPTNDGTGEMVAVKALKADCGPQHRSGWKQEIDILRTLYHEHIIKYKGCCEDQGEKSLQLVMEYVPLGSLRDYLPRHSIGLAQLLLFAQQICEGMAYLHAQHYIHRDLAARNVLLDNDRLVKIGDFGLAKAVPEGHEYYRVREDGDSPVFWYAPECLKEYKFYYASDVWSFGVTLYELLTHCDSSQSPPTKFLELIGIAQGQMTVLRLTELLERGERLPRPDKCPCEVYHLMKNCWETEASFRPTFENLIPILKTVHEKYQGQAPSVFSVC

With `COc1c(Cl)cccc1-n1[nH]c(=O)c2cnc(Nc3cc(C)nc(C)n3)cc21` [Compound I-101, 1-(3-chloro-2-methoxyphenyl)-6-((2,6-dimethylpyrimidin-4-yl)amino)-1,2-dihydro-3H-pyrazolo[4,3-c]pyridin-3-one], the IC50 in assay [1] and in assay [2] was over 90 µM throughout.
Take `CNC(=O)Nc1cc2c(cn1)c(=O)[nH]n2-c1ccccc1` [Compound I-125, 1-methyl-3-(3-oxo-1-phenyl-2,3-dihydro-1H-pyrazolo[4,3-c]pyridin-6-yl)urea]: the IC50 in assay [1] is 30 to 90 µM; in assay [2] it was under 10 µM.
Take `COc1cccc(-n2[nH]c(=O)c3cnc(Nc4ccc(C(F)(F)F)cn4)cc32)c1` [Compound I-42, 1-(3-methoxyphenyl)-6-((5-(trifluoromethyl)pyridin-2-yl)amino)-1,2-dihydro-3H-pyrazolo[4,3-c]pyridin-3-one]: the IC50 in assay [1] and in assay [2] was under 10 µM throughout.
Take `Cc1cc(Nc2cc3c(cn2)c(=O)[nH]n3-c2ccc(C#N)c(F)c2)nc(C)n1` [Compound I-90, 4-(6-((2,6-dimethylpyrimidin-4-yl)amino)-3-oxo-2,3-dihydro-1H-pyrazolo[4,3-c]pyridin-1-yl)-2-fluorobenzonitrile]: the IC50 in assay [1] and in assay [2] was under 10 µM throughout.
With `COCCC(=O)Nc1cc2c(cn1)c(=O)[nH]n2-c1ccccc1` [Compound I-7, 3-methoxy-N-(3-oxo-1-phenyl-2,3-dihydro-1H-pyrazolo[4,3-c]pyridin-6-yl)propanamide], the IC50 in assay [1] was in the range of 30 to 90 µM; in assay [2] it was 10 to 30 µM.
`N#Cc1ccc(-n2[nH]c(=O)c3cnc(NC(=O)C4CC4)cc32)cc1Cl` [Compound I-89, N-(1-(3-chloro-4-cyanophenyl)-3-oxo-2,3-dihydro-1H-pyrazolo[4,3-c]pyridin-6-yl)cyclopropanecarboxamide]: the IC50 in assay [1] and in assay [2] was under 10 µM each time.
For `O=c1[nH]n(C2CCCC2)c2cc(Nc3ccc(F)cn3)ncc12` [Compound I-115, 1-cyclopentyl-6-((5-fluoropyridin-2-yl)amino)-1,2-dihydro-3H-pyrazolo[4,3-c]pyridin-3-one], the IC50 in assay [1] and in assay [2] was under 10 µM throughout.
Regarding `Cc1cc(Nc2cc3c(cn2)c(=O)[nH]n3-c2cccc(OC(F)(F)F)c2)nc(C)n1` [Compound I-28, 6-((2,6-dimethylpyrimidin-4-yl)amino)-1-(3-(trifluoromethoxy)phenyl)-1,2-dihydro-3H-pyrazolo[4,3-c]pyridin-3-one], the IC50 in assay [1] and in assay [2] was under 10 µM in each case.
`COc1cccc(-n2[nH]c(=O)c3cnc(Nc4ccncn4)cc32)c1` [Compound I-51, 1-(3-methoxyphenyl)-6-(pyrimidin-4-ylamino)-1,2-dihydro-3H-pyrazolo[4,3-c]pyridin-3-one]: the IC50 in assay [1] and in assay [2] was under 10 µM in each case.
Take `COc1cccc(-n2[nH]c(=O)c3cnc(Nc4cc(OC)ccn4)cc32)c1` [Compound I-45, 1-(3-methoxyphenyl)-6-((4-methoxypyridin-2-yl)amino)-1,2-dihydro-3H-pyrazolo[4,3-c]pyridin-3-one]: the results for the concentration for half-maximal inhibition (IC50) in assay [1] and in assay [2] were over 90 µM and 10 to 30 µM, respectively.
Regarding `Cc1cc(Nc2cc3c(cn2)c(=O)[nH]n3-c2cccnc2)nc(C)n1` [Compound I-30, 6-((2,6-dimethylpyrimidin-4-yl)amino)-1-(pyridin-3-yl)-1,2-dihydro-3H-pyrazolo[4,3-c]pyridin-3-one], the values for the IC50 in assay [1] and in assay [2] were 10 to 30 µM and under 10 µM, respectively.
In the case of `O=c1[nH]n(-c2ccccc2F)c2cc(Nc3ccc(F)cn3)ncc12` [Compound I-112, 1-(2-fluorophenyl)-6-((5-fluoropyridin-2-yl)amino)-1,2-dihydro-3H-pyrazolo[4,3-c]pyridin-3-one], the IC50 in assay [1] and in assay [2] was under 10 µM throughout.
As for `CCc1ccccc1-n1[nH]c(=O)c2cnc(Nc3ccc(F)cn3)cc21` [Compound I-109, 1-(2-ethylphenyl)-6-((5-fluoropyridin-2-yl)amino)-1,2-dihydro-3H-pyrazolo[4,3-c]pyridin-3-one], the IC50 in assay [1] and in assay [2] was over 90 µM each time.
Turning to `Cn1cc(Nc2cc3c(cn2)c(=O)[nH]n3-c2ccccc2)cn1` [Compound I-5, 6-((1-methyl-1H-pyrazol-4-yl)amino)-1-phenyl-1,2-dihydro-3H-pyrazolo[4,3-c]pyridin-3-one], the results for the IC50 in assay [1] and in assay [2] were 30 to 90 µM and 10 to 30 µM, respectively.
For `Cc1cc(Nc2cc3c(cn2)c(=O)[nH]n3-c2cccc(F)c2F)nc(C)n1` [Compound I-113, 1-(2,3-difluorophenyl)-6-((2,6-dimethylpyrimidin-4-yl)amino)-1,2-dihydro-3H-pyrazolo[4,3-c]pyridin-3-one] the same measures were under 10 µM and under 10 µM.
For `Cn1ccc(Nc2cc3c(cn2)c(=O)[nH]n3-c2ccccc2)n1` [Compound I-4, 6-((1-methyl-1H-pyrazol-3-yl)amino)-1-phenyl-1,2-dihydro-3H-pyrazolo[4,3-c]pyridin-3-one], the IC50 in assay [1] is 10 to 30 µM; in assay [2], under 10 µM.
In the same order, the values of `COc1cccc(-n2[nH]c(=O)c3cnc(Nc4ccc(C#N)cn4)cc32)c1` [Compound I-40, 6-((1-(3-methoxyphenyl)-3-oxo-2,3-dihydro-1H-pyrazolo[4,3-c]pyridin-6-yl)amino)nicotinonitrile] are under 10 µM and under 10 µM.
For `COc1cccc(-n2[nH]c(=O)c3cnc(Nc4ccc(F)cn4)cc32)c1F` [Compound I-38, 1-(2-fluoro-3-methoxyphenyl)-6-((5-fluoropyridin-2-yl)amino)-1,2-dihydro-3H-pyrazolo[4,3-c]pyridin-3-one] the same measures were 10 to 30 µM and under 10 µM.
For `COc1cc(-n2[nH]c(=O)c3cnc(NC(=O)C4CC4)cc32)ccc1C#N` [Compound I-82, N-(1-(4-cyano-3-methoxyphenyl)-3-oxo-2,3-dihydro-1H-pyrazolo[4,3-c]pyridin-6-yl)cyclopropanecarboxamide], the results for the IC50 in assay [1] and in assay [2] were 10 to 30 µM and under 10 µM, respectively.
For `CCc1ccccc1-n1[nH]c(=O)c2cnc(NC(=O)C3CC3)cc21` [Compound I-110, N-(1-(2-ethylphenyl)-3-oxo-2,3-dihydro-1H-pyrazolo[4,3-c]pyridin-6-yl)cyclopropanecarboxamide] the same measures were over 90 µM and over 90 µM.
As for `COc1cccc(-n2[nH]c(=O)c3cnc(Nc4cc(C)nc(C)n4)c(F)c32)c1` [Compound I-24, 6-((2,6-dimethylpyrimidin-4-yl)amino)-7-fluoro-1-(3-methoxyphenyl)-1,2-dihydro-3H-pyrazolo[4,3-c]pyridin-3-one], the IC50 in assay [1] is over 90 µM; in assay [2] it was 10 to 30 µM.
For `COC(=O)c1ccc(-n2[nH]c(=O)c3cnc(Nc4cc(C)nc(C)n4)cc32)cc1` [Compound I-74, methyl 4-(6-((2,6-dimethylpyrimidin-4-yl)amino)-3-oxo-2,3-dihydro-1H-pyrazolo[4,3-c]pyridin-1-yl)benzoate] the same measures were under 10 µM and under 10 µM.
For `Cc1cc(Nc2cc3c(cn2)c(=O)[nH]n3-c2ccccc2F)nc(C)n1` [Compound I-111, 6-((2,6-dimethylpyrimidin-4-yl)amino)-1-(2-fluorophenyl)-1,2-dihydro-3H-pyrazolo[4,3-c]pyridin-3-one] the same measures were under 10 µM and under 10 µM.
